System: female Fisher 344 rats bearing rat mammary adenocarcinoma 13762
Assay: Effect of creatine compounds on glucose levels in rats bearing tumors (i.v., days 4-8 and 14-18)
Assay type: in vivo
Conditions: for Glucose Levels: i.v. days 4-8 and 14-18
Procedure: Two creatine compounds, creatine phosphate and cyclocreatine, were injected intravenously into tumor bearing rats, and the level of glucose in the rats was monitored. Beta guanidino propionic acid, also was administered. […] There was no specific reason for using tumor bearing rats, except convenience because the antitumor activity of these compounds also was being studied. The presence of the tumors should not have any effect on the ability of these compounds to regulate glucose levels. The rats carrying the tumors were described by us previously (see, […] et al., Cancer Chemother. Pharmacol, 35: 411-416, 1995). The schedule and dose selected in these experiments was based on prior experience working with this class of compounds as anticancer or antiviral chemotherapeutic agents. The rat mammary adenocarcinoma 13762 was implanted in the female Fisher 344 rats on day zero. The creatine compounds were administered intravenously on days 4-8 and days 14-18. The amounts used were 1 gm/kg of cyclocreatine, 0.93 gm/kg for beta guanidino propionic acid, and 2.32 gm/kg for creatine phosphate. […] Plasma glucose levels were measured at around 11 a.m., by taking a drop of blood from the animals and testing glucose levels using a commercial kit ([…] bG, Boehringer Mannheim). For animals that were treated with drugs, the treatment was around 9 a.m., and bleeding was also at around 11 a.m. To examine more closely what occurred in the above two experiments, the average readings of glucose levels from experiments one and two were taken in the following time intervals post drug treatment: Days 2-3, Days 4-8, Days 8-12, Days 14-18, Day 15 and Days 19-22.

NC1=NCCN1CC(=O)O [cyclocreatine]
Glucose Levels (Example 1): two drops in glucose levels at the time of drug administration
Glucose Levels (Example 2 (repeat)): induced a drop in the level of glucose after each administration
drop in glucose level (average of experiments one and two, day 15): ≤ 50%

Reference: patent US20050256134A1, “Use of creatine analogues and creatine kinase modulators for the prevention and treatment of glucose metabolic disorders” (AVICENA GROUP, INC., priority 1995, published 2005)
